According to US12384797B2, “Thioeno[3,2-b] pyridin-7-amine compounds for treating familial dysautonomia” (PTC THERAPEUTICS, INC., priority 2019, dated 2025):

Tested on: Elongator complex protein 1 (ELP1, also referred to as IKBKAP)
Test: IKBKAP-HTRF assay (IKBKAP protein in lysates of FD patient-derived fibroblasts)
Format: cell-based, human
Conditions: 48 hours incubation, 7-point concentration curve
In short: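 Sandwich HTRF with two labelled anti-IKAP antibodies (overnight, 4 °C) measured IKBKAP in lysates of FD patient fibroblasts. Cells were exposed to compound for 48 h at 37 °C (7-point curve, 3.16-fold steps, triplicates). EC2x is the dose doubling IKBKAP versus DMSO control; MFI is sample ΔF divided by vehicle ΔF.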

| SMILES | EC2x for IKBKAP protein expression (concentration producing two times the amount of IKBKAP protein vs DMSO vehicle control) | MFI (maximum fold increase in IKBKAP protein abundance relative to the vehicle control) |
| --- | --- | --- |
| N[C@@H](CCO)Cc1sc2c(NCc3ccccc3F)cc(Cl)nc2c1Br [Compound 100, (3S)-3-amino-4-(3-bromo-5-chloro-7-{[(2-fluorophenyl)methyl]amino}thieno[3,2-b]pyridin-2-yl)butan-1-ol] | ***** (≤0.005 μM is indicated by five stars (*****)) | ***** (>4.9 is indicated by five stars (*****)) |
| C[C@H](N)Cc1sc2c(NCc3cccs3)cc(C#N)nc2c1Br [Compound 101, 2-[(2S)-2-aminopropyl]-3-bromo-7-{[(thiophen-2-yl)methyl]amino}thieno[3,2-b]pyridine-5-carbonitrile] | ***** (≤0.005 μM is indicated by five stars (*****)) | ***** (>4.9 is indicated by five stars (*****)) |
| C[C@H](N)Cc1sc2c(NCc3cccs3)cc(C#N)nc2c1C#N [Compound 102, 2-[(2S)-2-aminopropyl]-7-{[(thiophen-2-yl)methyl]amino}thieno[3,2-b]pyridine-3,5-dicarbonitrile] | ***** (≤0.005 μM is indicated by five stars (*****)) | ***** (>4.9 is indicated by five stars (*****)) |
| N#CC[C@H](N)Cc1sc2c(NCc3ccco3)cc(Cl)nc2c1Br [Compound 103, (3S)-3-amino-4-(3-bromo-5-chloro-7-{[(furan-2-yl)methyl]amino}thieno[3,2-b]pyridin-2-yl)butanenitrile] | **** (between >0.005 μM and ≤0.02 μM is indicated by four stars (****)) | **** (between >3.9 and ≤4.9 is indicated by four stars (****)) |
| CSC[C@H](N)Cc1sc2c(NCc3ccco3)cc(Cl)nc2c1C [Compound 104, 2-[(2R)-2-amino-3-(methylsulfanyl)propyl]-5-chloro-N-[(furan-2-yl)methyl]-3-methylthieno[3,2-b]pyridin-7-amine] | ***** (≤0.005 μM is indicated by five stars (*****)) | ***** (>4.9 is indicated by five stars (*****)) |
| Cc1c(C[C@@H](N)CC#N)sc2c(NCc3cccs3)cc(Cl)nc12 [Compound 105, (3S)-3-amino-4-(5-chloro-3-methyl-7-{[(thiophen-2-yl)methyl]amino}thieno[3,2-b]pyridin-2-yl)butanenitrile] | ***** (≤0.005 μM is indicated by five stars (*****)) | ***** (>4.9 is indicated by five stars (*****)) |
| N#CC[C@H](N)Cc1sc2c(NCc3cccs3)cc(Cl)nc2c1Cl [Compound 106, (3S)-3-amino-4-(3,5-dichloro-7-{[(thiophen-2-yl)methyl]amino}thieno[3,2-b]pyridin-2-yl)butanenitrile] | ***** (≤0.005 μM is indicated by five stars (*****)) | ***** (>4.9 is indicated by five stars (*****)) |
| N[C@H](Cc1sc2c(NCc3cccs3)cc(Cl)nc2c1Br)CC(F)F [Compound 107, 2-[(2S)-2-amino-4,4-difluorobutyl]-3-bromo-5-chloro-N-[(thiophen-2-yl)methyl]thieno[3,2-b]pyridin-7-amine] | ***** (≤0.005 μM is indicated by five stars (*****)) | ***** (>4.9 is indicated by five stars (*****)) |
| Cc1c(C[C@@H](N)CS(C)(=O)=O)sc2c(NCc3ccco3)cc(Cl)nc12 [Compound 108, 2-[(2R)-2-amino-3-(methanesulfonyl)propyl]-5-chloro-N-[(furan-2-yl)methyl]-3-methylthieno[3,2-b]pyridin-7-amine] | **** (between >0.005 μM and ≤0.02 μM is indicated by four stars (****)) | ***** (>4.9 is indicated by five stars (*****)) |
| C[C@H](N)Cc1sc2c(NCc3ccco3)cc(Cl)nc2c1C#N [Compound 109, 2-[(2S)-2-aminopropyl]-5-chloro-7-{[(furan-2-yl)methyl]amino}thieno[3,2-b]pyridine-3-carbonitrile] | ***** (≤0.005 μM is indicated by five stars (*****)) | ***** (>4.9 is indicated by five stars (*****)) |
| C[C@H](N)Cc1sc2c(NCc3cccs3)cc(Cl)nc2c1C#N [Compound 110, 2-[(2S)-2-aminopropyl]-5-chloro-7-{[(thiophen-2-yl)methyl]amino}thieno[3,2-b]pyridine-3-carbonitrile] | ***** (≤0.005 μM is indicated by five stars (*****)) | **** (between >3.9 and ≤4.9 is indicated by four stars (****)) |
| Cc1c(C[C@@H](N)CC#N)sc2c(NCc3ccco3)cc(Cl)nc12 [Compound 111, (3S)-3-amino-4-(5-chloro-7-{[(furan-2-yl)methyl]amino}-3-methylthieno[3,2-b]pyridin-2-yl)butanenitrile] | **** (between >0.005 μM and ≤0.02 μM is indicated by four stars (****)) | ***** (>4.9 is indicated by five stars (*****)) |
| C[C@H](N)Cc1sc2c(NCc3cccs3)cc(C#N)nc2c1Cl [Compound 112, 2-[(2S)-2-aminopropyl]-3-chloro-7-{[(thiophen-2-yl)methyl]amino}thieno[3,2-b]pyridine-5-carbonitrile] | ***** (≤0.005 μM is indicated by five stars (*****)) | ***** (>4.9 is indicated by five stars (*****)) |
| CS(=O)(=O)C[C@H](N)Cc1sc2c(NCc3ccco3)cc(Cl)nc2c1Cl [Compound 113, 2-[(2R)-2-amino-3-(methanesulfonyl)propyl]-3,5-dichloro-N-[(furan-2-yl)methyl]thieno[3,2-b]pyridin-7-amine] | **** (between >0.005 μM and ≤0.02 μM is indicated by four stars (****)) | ***** (>4.9 is indicated by five stars (*****)) |
| CSC[C@H](N)Cc1sc2c(NCc3ccco3)cc(Cl)nc2c1Cl [Compound 114, 2-[(2R)-2-amino-3-(methylsulfanyl)propyl]-3,5-dichloro-N-[(furan-2-yl)methyl]thieno[3,2-b]pyridin-7-amine] | ***** (≤0.005 μM is indicated by five stars (*****)) | ***** (>4.9 is indicated by five stars (*****)) |
| Cc1c(C[C@@H](N)C(=O)O)sc2c(NCc3ccco3)cc(Cl)nc12 [Compound 115, 3-(5-chloro-7-{[(furan-2-yl)methyl]amino}-3-methylthieno[3,2-b]pyridin-2-yl)-D-alanine] | ***** (≤0.005 μM is indicated by five stars (*****)) | ***** (>4.9 is indicated by five stars (*****)) |
